Source: US8975265B2, “Substituted imidazo[1,2-a]pyrimidines and —pyridines” (Bayer Intellectual Property GmbH, priority 2010, dated 2015)

How the values were obtained:
[1] = test system: p-4E-BP1-T70 in KPL4 breast tumour cell line; assay: Cellular p-4E-BP1-T70 assay; format: cell-based; conditions: 2 hours treatment, read-out: P4EBP1-T70 median IC50
Protocol: The molecular mechanism of action was investigated in a set of experiments to assess the inhibition of the PI3K-AKT-mTOR pathway in responsive cell lines such as KPL4 breast tumour cell line (PIK3CAH1047R, HER20/E and hormone independent). The phospho-substrates of PI3K-AKT-mTOR axis were used as the read-outs to reflect pathway inhibition. Cells were seeded at 60-80% confluency per well in 96-well cell culture plates. After overnight incubation at 37° C. 5% CO2, cells were treated with compounds and vehicle at 37° C. for 2 hours. Thereafter, cells were lysed in 150 μl lysis buffer and the levels of phospho-AKT at T308 and S473 and p-4E-BP1 at T70 sites were determined with the corresponding AlphaScreen® SureFire® assay kits (Perkin Elmer: 4E-BP1 Assay Kit Cat # TRG4E2S10K; Akt 1/2/3 p-Ser 473 #TGRA4S500 and Akt 1/2/3 p-Thr 308 #TGRA3S500 as well as IgG detection Kit #6760617M) as described in the manuals. All measurements where at least done in duplicates and confirmed by independent repetition.

[2] = biological target: His-tagged human recombinant kinase full-length Akt1 (Homo sapiens (Human), UniProt P31749); assay: Akt1 kinase assay (TR-FRET); format: biochemical; conditions: 10 μM ATP; read-out: Akt1, median IC50
Summary of the method: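 Full-length His-tagged Akt1 (about 0.05 ng/μl final) preincubated 15 min at 22 °C with compound in 50 mM TRIS/HCl pH 7.5, 5 mM MgCl2, 1 mM DTT, 0.02% Triton X-100; biotinylated peptide substrate. Phosphopeptide detected by TR-FRET (Eu-chelate antibody to streptavidin-XL665) after 1 h at 22 °C.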

MCF7 = assay: Tumor cell proliferation assay (CellTiter-Glo, 72 h), MCF7; format: cell-based; conditions: Homo sapiens, 72h drug exposure
Protocol: Compounds were tested in a cell-based assay that measures the capacity of the compounds to inhibit tumour cell proliferation following a 72h drug exposure. Cell viability is determined using CellTiter-Glow® (CTG, Promega, cat# G7571/2/3). The CellTiter-Glo® Luminescent Cell Viability Assay is a homogeneous method to determine the number of viable cells in culture. Detection is based on using the luciferase reaction to measure the amount of ATP from viable cells. The amount of ATP in cells correlates with cell viability. Within minutes after a loss of membrane integrity, cells lose the ability to synthesize ATP, and endogenous ATPases destroy any remaining ATP; thus the levels of ATP fall precipitously.
Cells were plated at 3000-5000 cells/well (depending on the cell lines) in 90 μL growth medium on MTPs (Corning; #3603, black plate, clear flat bottom). For each cell line assayed, cells were plated onto a separate plate for determination of […] at t=0 hour and t=72 hour time points. Following overnight incubation at 37° C., chemiluminescence values for the t=0 samples were determined after adding 10 μl medium and 100 μl CTG solution according to manufacture protocol. Plates for the t=72 hour time points were treated with compounds diluted into growth medium at ten times final concentration added in 10 μL to the cell culture plate. Cells were then incubated for 72 hours at 37° C. Chemiluminescence values for the t=72 hour samples were determined. […] Experiments were controlled using a reference compound as standard.

[3] = test system: KPL-4 breast cancer cell line; assay: Tumor cell proliferation assay (CellTiter-Glo, 72 h), KPL-4; format: cell-based; conditions: KPL4, 72h drug exposure
Summary of the method: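 KPL-4 cells were treated with compound for 72 h at 37°C. Viability was measured as ATP by CellTiter-Glo luminescence, with a separate t=0 plate read after overnight attachment. A reference compound was run as standard.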

[4] = test system: p-AKT1/2/3-S473 in KPL4 breast tumour cell line; assay: Cellular p-AKT1/2/3-S473 assay; format: cell-based; conditions: KPL4 breast tumour cell line, 2 hours treatment; read-out: pAKT-S743 median IC50
Summary of the method: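 KPL4 cells (PIK3CA H1047R, HER2 0/E, hormone independent) were seeded at 60–80% confluency, cultured overnight, then exposed to compound for 2 h at 37 °C. pAKT-S473 and total AKT measured together by MSD Akt Duplex on 20 µg extract; pAKT expressed as % of total AKT, at least duplicate with independent repeats.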

Chain of His-tagged human recombinant kinase full-length Akt1 (P31749 whole entry): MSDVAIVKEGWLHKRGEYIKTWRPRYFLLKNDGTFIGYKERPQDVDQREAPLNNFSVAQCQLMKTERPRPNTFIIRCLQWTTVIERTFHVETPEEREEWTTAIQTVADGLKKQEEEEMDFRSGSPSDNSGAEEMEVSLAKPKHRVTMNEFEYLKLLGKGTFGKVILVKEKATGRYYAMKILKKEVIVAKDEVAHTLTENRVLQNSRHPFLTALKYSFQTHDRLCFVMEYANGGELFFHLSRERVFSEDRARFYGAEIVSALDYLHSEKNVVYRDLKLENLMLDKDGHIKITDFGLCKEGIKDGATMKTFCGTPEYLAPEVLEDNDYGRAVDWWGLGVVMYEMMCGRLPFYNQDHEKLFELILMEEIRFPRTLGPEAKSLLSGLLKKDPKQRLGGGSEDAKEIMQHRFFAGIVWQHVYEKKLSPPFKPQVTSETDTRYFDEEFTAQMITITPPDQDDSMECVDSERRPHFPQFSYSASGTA

SMILES	IC50 [1] [nM]	IC50 [2] [nM]	IC50 (MCF7) [nM]	IC50 [3] [nM]	IC50 [4] [nM]
Cc1cccc2nc(-c3ccc(C4(N)CCC4)cc3)c(-c3ccccc3)n12 [Example 14-0, 1-[4-(5-methyl-3-phenylimidazo[1,2-a]pyridin-2-yl)phenyl]cyclobutanamine]	8150	1500	1800	3100	1120
Cc1c(Cl)cn2c(-c3ccccc3)c(-c3ccc(C4(N)CCC4)cc3)nc2c1-c1ccc(F)cc1 [Example 2-87]	10000		2100	3700	7530
Nc1ccc2nc(-c3ccc(C4(N)CCC4)cc3)c(-c3ccccc3)n2c1 [Example 2-155]	2220	854	1700	5500	374
NC1(c2ccc(-c3nc4cc(Cl)c(Cl)cn4c3-c3ccccc3)cc2)CCC1 [Example 2-80]	1860		1800	2000	912
Cc1cc(Cl)cn2c(-c3ccccc3)c(-c3ccc(C4(N)CCC4)cc3)nc12 [Example 2-76]	1960		1700	2100	582
COc1cncc(-c2cc(C)cn3c(-c4ccccc4)c(-c4ccc(C5(N)CCC5)cc4)nc23)c1 [Example 2-91]	1610		1800	2000	678
NC1(c2ccc(-c3nc4c(Br)cc(C(F)(F)F)cn4c3-c3ccccc3)cc2)CCC1 [Example 2-86]	2510		1800	2000	1200
COc1cc(-c2ncc[nH]2)cn2c(-c3ccccc3)c(-c3ccc(C4(N)CCC4)cc3)nc12 [Example 2-149]	1960	198	1800	2900	576
NC(=O)c1cc(-c2ccn[nH]2)cn2c(-c3ccccc3)c(-c3ccc(C4(N)CCC4)cc3)nc12 [Example 2-98]	1120	69	1900	1900	225
NC1(c2ccc(-c3nc4c(Cl)cc(Cl)cn4c3-c3ccccc3)cc2)CCC1 [Example 2-78]	1580		1100	1900	100
CCOC(=O)c1cc(Br)c2nc(-c3ccc(C4(N)CCC4)cc3)c(-c3ccccc3)n2c1 [Example 2-77]	1720		1700	8100	474
Cc1c(Br)cn2c(-c3ccccc3)c(-c3ccc(C4(N)CCC4)cc3)nc2c1C [Example 2-84]	3140		1600	2200	1340
CS(=O)(=O)Nc1ccc2nc(-c3ccc(C4(N)CCC4)cc3)c(-c3ccccc3)n2c1 [Example 2-159]	3280	2990	2800	4700	907
Cc1ccc2nc(-c3ccc(C4(N)CCC4)cc3)c(-c3ccccc3)n2c1 [Example 2-7]	3960	203		1900	487
NC(=O)Nc1ccn2c(-c3ccccc3)c(-c3ccc(C4(N)CCC4)cc3)nc2c1 [Example 2-153]		457	400	10000	1640
Cc1cc(Br)cn2c(-c3ccccc3)c(-c3ccc(C4(N)CCC4)cc3)nc12 [Example 2-82]	3280		1700	2100	1020
NC1(c2ccc(-c3nc4c(-c5ccc(F)cc5)cccn4c3-c3ccccc3)cc2)CCC1 [Example 2-68, 1-{4-[8-(4-fluorophenyl)-3-phenyl-imidazo[1,2-a]pyridin-2-yl]-phenyl}-cyclobutylamine]		308	1900	3100	748

More lines, in order of falling IC50 [3], values ahead:

IC50 [1] [nM]	IC50 [2] [nM]	IC50 (MCF7) [nM]	IC50 [3] [nM]	IC50 [4] [nM]	SMILES
158	106	1900	1900	33	Cc1cc(-c2cn[nH]c2)cn2c(-c3ccccc3)c(-c3ccc(C4(N)CCC4)cc3)nc12 [Example 2-102]
1810	139	1500	1900	397	COc1cc(-c2cnc[nH]2)cn2c(-c3ccccc3)c(-c3ccc(C4(N)CCC4)cc3)nc12 [Example 2-148]
1400	330	1700	1900	380	Cc1c(-c2ccn[nH]2)cn2c(-c3ccccc3)c(-c3ccc(C4(N)CCC4)cc3)nc2c1C [Example 2-89]
2180	195	300	1800	180	NC1(c2ccc(-c3nc4ccc(-c5cnc[nH]5)cn4c3-c3ccccc3)cc2)CCC1 [Example 2-129]
90	177	1800	1800	93	NC(=O)c1cc(-c2cccnc2)cn2c(-c3ccccc3)c(-c3ccc(C4(N)CCC4)cc3)nc12 [Example 2-99]
615		2000	1800	189	Cc1cc(Br)c2nc(-c3ccc(C4(N)CCC4)cc3)c(-c3ccccc3)n2c1 [Example 2-83]
292		1700	1800	58	NC(=O)c1cc(Br)cn2c(-c3ccccc3)c(-c3ccc(C4(N)CCC4)cc3)nc12 [Example 2-94]
4810	514	200	1700	482	Nc1ccn2c(-c3ccccc3)c(-c3ccc(C4(N)CCC4)cc3)nc2c1 [Example 2-151]
2000	64	1300	1700	195	NC1(c2ccc(-c3nc4cc(F)ccn4c3-c3ccccc3)cc2)CCC1 [Example 2-67]
2030	287		1600	138	N#Cc1ccc2nc(-c3ccc(C4(N)CCC4)cc3)c(-c3ccccc3)n2c1 [Example 1-10]
1400		1600	1400	251	Cc1ccn2c(-c3ccccc3)c(-c3ccc(C4(N)CCC4)cc3)nc2c1Cl [Example 2-74]
1210	62	500	900	190	CC(=O)Nc1ccc2nc(-c3ccc(C4(N)CCC4)cc3)c(-c3ccccc3)n2c1 [Example 2-156]
370		500	900	48	COc1ccn2c(-c3ccccc3)c(-c3ccc(C4(N)CCC4)cc3)nc2c1C#N [Example 2-79]
13	11	400	400	3	NC(=O)c1cc(Br)c2nc(-c3ccc(C4(N)CCC4)cc3)c(-c3ccccc3)n2c1 [Example 2-95]
89	14	300	300	19	Cc1cc(C(N)=O)cn2c(-c3ccccc3)c(-c3ccc(C4(N)CCC4)cc3)nc12 [Example 2-101]
719	99	200	200	230	Cc1cc(-c2ccn[nH]2)cn2c(-c3ccccc3)c(-c3ccc(C4(N)CCC4)cc3)nc12 [Example 2-103]
